Experimental data published in ChEMBL document CHEMBL5241105, “Natural Products with Potential for Nonhormonal Male Contraception” (J Nat Prod, 2021).

Legend:
[1] = species: Rattus norvegicus; assay: Antifertility in male rat assessed as reduction in fertility relative to control; assay type: functional; parameters: scale not given: the % may be the effect or the level left
[2] = species: Homo sapiens; assay: Inhibition of calcium channel (unknown origin) at 2 mg/ml relative to control
[3] = test system: Meriones unguiculatus; assay: Antifertility activity in gerbils assessed as inhibition of spermatid production at 25 mg/kg, po (reference value: 51.2 %); assay type: functional; parameters: scale not given: the % may be the effect or the level left
[4] = test system: Oryctolagus cuniculus; assay: Antifertility activity in rabbit assessed as inhibition of spermatid production at 25 mg/kg, po (reference value: 33.9 %); assay type: functional; parameters: scale not given: the % may be the effect or the level left
[5] = species: Rattus norvegicus; assay: Antifertility activity in Sprague-Dawley rat assessed as reduction in cauda epididymal sperm count (reference value: 41.5 +/- 19.3 10^6/ml); assay type: functional
[6] = Toxicity in oral dosed rat assessed as median lethal dose; assay type: organism-based; settings: in vivo
[7] = species: Rattus norvegicus; assay: Antifertility activity in Sprague-Dawley rat assessed as sperm with normal morphology (reference value: 77.2 +/- 16.9%); assay type: functional
[8] = species: Rattus norvegicus; assay: Antifertility activity in Sprague-Dawley rat assessed as motile sperm percentage (reference value: 85.7 +/- 16.9%); assay type: functional
[9] = species: Rattus norvegicus; assay: Antifertility activity in albino rat assessed as inhibition of motility (reference value: 30.75 %); assay type: functional; parameters: scale not given: the % may be the effect or the level left
[10] = test system: Rattus norvegicus; assay: Antifertility activity in rat assessed as decrease in fertility at 10 mg/kg administered daily relative to control; assay type: functional; parameters: scale not given: the % may be the effect or the level left
[11] = species: Mus musculus; assay: Antifertility activity in mouse assessed as reduction in testicular weight relative to control; assay type: functional; parameters: scale not given: the % may be the effect or the level left
[12] = test system: Hamster; assay: Antifertility activity in hamster assessed as decrease in egg fertilization percentage at 0.70 to 1.05 mM (reference value: 93.6 +/- 3.12 %); assay type: functional, Cricetinae; parameters: scale not given: the % may be the effect or the level left; settings: dose 0.7-1.05 mM; at 0.7 to 1.05 mM
[13] = test system: Rattus norvegicus; assay: Antifertility activity in male albino rat assessed as reduction in number of spermatids at 15 mg/kg administered daily relative to control; assay type: functional; parameters: scale not given: the % may be the effect or the level left
[14] = test system: Rattus norvegicus; assay: Antifertility activity in male albino rat assessed as reduction in spermatids at 15 mg/kg administered daily relative to control; assay type: functional; parameters: scale not given: the % may be the effect or the level left
[15] = test system: Rattus norvegicus; assay: Antifertility activity in male albino rat assessed as reduction in sertoli cells at 15 mg/kg administered daily relative to control; assay type: functional; parameters: scale not given: the % may be the effect or the level left
[16] = test system: Rattus norvegicus; assay: Antifertility activity in male Sprague-Dawley rat assessed as infertility at 100 microg/kg/day measured for 63 to 70 days relative to control; assay type: functional; settings: dose 100 µg/kg/day; time 63-70 day
[17] = species: Mus musculus; assay: Antifertility against male C57BL/6J mouse assessed as infertility; assay type: functional, organism-based
[18] = Toxicity in rat assessed as median lethal dose; settings: in vivo
[19] = test system: Mus musculus; assay: Antifertility activity in C57BL/6J male mouse assessed as head bend back deformation at 0.8 mg/kg administered via oral gavage for 4 weeks relative to control; assay type: functional
[20] = test system: Mus musculus; assay: Antifertility activity in C57BL/6J male mouse assessed as reduction in forward sperm motility at 0.8 mg/kg administered via oral gavage for 4 weeks relative to control; assay type: functional; parameters: scale not given: the % may be the effect or the level left
[21] = Toxicity in mouse assessed as median lethal dose; settings: in vivo

**Q.** With `CC1(C)C[C@H]2C3=CC[C@@H]4[C@@]5(C)CC[C@H](O[C@@H]6O[C@H](CO[C@@H]7OC[C@@H](O)[C@H](O)[C@H]7O[C@@H]7OC[C@@H](O)[C@H](O)[C@H]7O)[C@@H](O)[C@H](O)[C@H]6O)C(C)(C)[C@@H]5CC[C@@]4(C)[C@]3(C)C[C@@H](O)[C@@]23C[C@@H]1OC3=O` as the molecule, how does the Activity [1] read?
**A.** Its Activity is 100%.

**Q.** Which Activity [1] does the source give for `CC1(C)C[C@H]2C3=CC[C@@H]4[C@@]5(C)CC[C@H](O[C@@H]6O[C@H](CO[C@@H]7OC[C@@H](O)[C@H](O)[C@H]7O[C@@H]7O[C@H](CO)[C@@H](O)[C@H](O)[C@H]7O)[C@@H](O)[C@H](O)[C@H]6O)C(C)(C)[C@@H]5CC[C@@]4(C)[C@]3(C)C[C@@H](O)[C@@]23C[C@@H]1OC3=O` here?
**A.** The Activity was 100%.

**Q.** Which Activity [1] does the source give for `CC1(C)C[C@H]2C3=CC[C@@H]4[C@@]5(C)CC[C@H](O[C@@H]6O[C@H](CO[C@@H]7OC[C@@H](O)[C@H](O)[C@H]7O[C@@H]7O[C@H](CO)[C@@H](O)[C@H](O)[C@H]7O)[C@@H](O)[C@H](O)[C@H]6O[C@@H]6O[C@H](CO)[C@@H](O)[C@H](O)[C@H]6O)C(C)(C)[C@@H]5CC[C@@]4(C)[C@]3(C)C[C@@H](O)[C@@]23C[C@@H]1OC3=O` here?
**A.** Its Activity is 100%.

**Q.** For `Oc1cc(O)c2c(c1)O[C@H](c1ccc(O)c(O)c1)[C@H](O)C2`, which inhibition [2] is on record?
**A.** Its inhibition is 53%.

**Q.** With `C[C@@H]1C[C@H](O)[C@]2(O)O[C@@H]3C[C@@]4(C=O)[C@@H](CC[C@@H]5[C@@H]4CC[C@]4(C)[C@@H](C6=CC(=O)OC6)CC[C@]54O)C[C@H]3O[C@@H]2O1` [CALOTROPIN] as the molecule, how does the Activity [3] read?
**A.** The Activity was 65.2%.

**Q.** And the Activity [4]?
**A.** The Activity was 94%.

**Q.** Which Activity [5] does the source give for `C=C1CC/C=C(/C)CC[C@@H]2[C@@H]1CC2(C)C` [CARYOPHYLLENE] here?
**A.** The Activity was 20.8 10^6/ml.

**Q.** And the LD50 [6]?
**A.** Its LD50 is over 5000 mg/kg.

**Q.** And the Activity [7]?
**A.** Its Activity is 36.2%.

**Q.** What about the Activity [8] of the same molecule?
**A.** Its Activity is 57.4%.

**Q.** With `CCCCCCCCCCCC1=C(O)C(=O)C=C(O)C1=O` [EMBELIN] as the molecule, how does the Activity [9] read?
**A.** Its Activity is 9.5%.

**Q.** For `C=C(C)[C@@H]1CC[C@]2(C)CC[C@]3(C)[C@H](CC[C@@H]4[C@@]5(C)CC[C@H](O)C(C)(C)[C@@H]5CC[C@]43C)[C@@H]12` [LUPEOL], which Activity [10] is on record?
**A.** Its Activity is 100%.

**Q.** For `CC1(C)CC[C@]2(C(=O)O)CC[C@]3(C)C(=CC[C@@H]4[C@@]5(C)CC[C@H](O)C(C)(C)[C@@H]5CC[C@]43C)[C@@H]2C1` [OLEANOLIC_ACID], which Activity [11] is on record?
**A.** The Activity was 60%.

**Q.** With `O=C(/C=C/C=C/c1ccc2c(c1)OCO2)N1CCCCC1` [PIPERINE] as the molecule, how does the Activity [12] read?
**A.** The Activity was 3.89%.

**Q.** Which results are given for `COC(=O)C1=CO[C@@H](O[C@@H]2O[C@H](CO)[C@@H](O)[C@H](O)[C@H]2O)[C@H]2[C@@H]1C=C[C@@]21C=C([C@H](C)O)C(=O)O1` [PLUMIERIDE]?
**A.** Activity [13]: 87%; Activity [14]: 59%; Activity [15]: 29%

**Q.** Which Activity [16] does the source give for `CC(C)[C@]12O[C@H]1[C@@H]1O[C@]13[C@]1(O[C@H]1C[C@H]1C4=C(CC[C@@]13C)C(=O)OC4)[C@@H]2O` [TRIPTOLIDE] here?
**A.** Its Activity is 100%.

**Q.** Which results are given for `CC(C)[C@]12O[C@H]1[C@@H]1O[C@@]13[C@@]1(C)CCC4=C(COC4=O)[C@@H]1C[C@@H]1O[C@@]13C2=O` [TRIPTONIDE]?
**A.** EC50 [17]: 0.9 mg/kg; LD50 [18]: 980 mg/kg; Activity [19]: 100%; Activity [20]: 100%; LD50 [21]: 300 mg/kg
